Patent publication US9211296B2, “Therapeutic compounds for blocking DNA synthesis of POX viruses” (priority 2007, dated 2015)
pEC50, pIC50: −log10 of the molar value. Entries after “also recorded” stand apart in the source; their conditions may differ. Read-outs that look alike come from different tables or passages of the source.

Key:
[1] = target: vaccinia virus DNA synthesis (viral DNA polymerase and its associated factors) (Vaccinia virus, UniProt P06856); format: biochemical
vaccinia virus WR [2] = assay: microbe, parasite or virus in culture; format: cell-based; settings: for pEC50: Orthopoxvirus vaccinia
vaccinia virus WR [3] = assay: microbe, parasite or virus in culture; format: cell-based; settings: Orthopoxvirus vaccinia
vaccinia virus WR [4] = format: cell-based
[5] = Solubility in cell growth medium by light scattering; settings: concentrations of the activity assays
Experimental: These 16 compounds were tested for cell protection and cytotoxicity over longer times (48 h and 72 h). […] The solubility of the 16 compounds was verified in cell growth medium over the range of concentrations used in the activity assays.

WST-1 cytotoxicity assay = settings: African green monkey, BS-C-1 cells
BS-C-1 cells = assay: WST-1 cytotoxicity assay; settings: for tox 20 h TC50 / tox 72 h TC50 / tox 120 h TC50: Table 6; for CC50: read-out: Cytotoxicity 20 h CC50, Table 4; for tox 20 h TC50 / CC50: 20 h
[6] = target: vaccinia E9 polymerase (Vaccinia virus (strain Western Reserve) (VACV) (Vaccinia virus (strain WR)), UniProt P06856); format: biochemical
[7] = target: triad (A20, D4, E9) (Vaccinia virus (strain Western Reserve) (VACV) (Vaccinia virus (strain WR)), UniProt P06856); format: biochemical
[8] = target: vaccinia triad (A20, D4, E9) (Vaccinia virus (strain Western Reserve) (VACV) (Vaccinia virus (strain WR)), UniProt P06856); format: biochemical
vaccinia virus [9] = assay: microbe, parasite or virus in culture; format: cell-based; settings: Orthopoxvirus vaccinia; for inhibition at 100 µM: BSC-1, 1 h, read-out: Inhibition of plaques
vaccinia virus [10] = format: cell-based
BSC-1 cells [11] = settings: 100 μM
in vitro = settings: African green monkey
vaccinia virus [12] = assay: microbe, parasite or virus in culture; settings: Orthopoxvirus vaccinia, BSC-1, 16 h, read-out: Plaque IC50
[13] = aCella-TOX GAPDH release cytotoxicity assay (viridicatumtoxin study); settings: African green monkey, BSC-1 cells
[14] = target: vaccinia E9 DNA polymerase (Vaccinia virus (strain Western Reserve) (VACV) (Vaccinia virus (strain WR)), UniProt P06856); assay: biochemical
BSC-1 cells [15] = assay: Cell viability at plaque IC50, cell counting; settings: at plaque IC50 (1.6 μM), 24 hrs
Experimental: (§1) The cell viability at the plaque IC50 value was performed using two independent methods, cell counting and MTT assay. For the cell counting method, cells were incubated overnight at 37° C. to sub-confluency in 48-well plates. The compounds dissolved in DMSO, were further diluted in media to a final concentration required to achieve the plaque IC50 value. The cells were incubated with the compounds for 24 hrs. The media was removed, the cells trypsinized and stained with tryphan blue, and counted. The MTT assay was also used to confirm cell viability at the plaque IC50. Cells were seeded at 1.5×10^4 cells/well in a 96-well plate and incubated overnight at 37° C. at 5% CO2. […] Each well received 20 μL of the MTT solution (5 mg MTT/mL PBS) and the plate was rocked for 5 min. The plates were incubated for an additional 5 h to metabolize MTT, after which the media was removed, and the plates were air dried. To resuspend the formazan, the end product of the MTT assay, 200 μL of DMSO was added to each well and the plates were rocked for 5-10 min. Absorbance was read at 560 nm.

BSC-1 cells [16] = assay: Cell viability at plaque IC50, MTT assay; settings: at plaque IC50 (1.6 μM), 16 h
Experimental: as §1

[17] = tested on: vaccinia early gene E3 mRNA; format: cell-based, vaccinia virus
[18] = tested on: vaccinia late gene F9 mRNA; format: cell-based, vaccinia virus
[19] = tested on: vaccinia early E3 protein; format: cell-based, vaccinia virus
vaccinia late L1 protein = format: cell-based, vaccinia virus
vaccinia virus [20] = settings: African green monkey
BSC-1 cells [21] = assay: aCella-TOX GAPDH release cytotoxicity assay (viridicatumtoxin study); settings: cells exposed to 200 μM
[22] = read-out: DNA Synthesis Inhibition IC50
[23] = 20 h, read-out: Cell Protection 20 h EC50
[24] = BSC-1, 20 h, read-out: cell prot EC50
[25] = 20 h, read-out: Plaque Reduction 20 h EC50
[26] = BSC-1, 20 h, read-out: plaque red EC50

## Cc1cc(OC(=O)c2ccco2)nc(SCc2c(Cl)cccc2Cl)n1 [Compound 8]
[1]; [22]
  pIC50: 4.28
[1]; read-out: DNA synth IC50
  pIC50: 4.28
Vaccinia virus WR [2]
  Selectivity Index SI: >2
  selectivity index: >2
Vaccinia virus WR [2]; [23]
  pEC50: 4.00
Vaccinia virus WR [2]; [24]
  pEC50: 4.00
Vaccinia virus WR [3]; [25]
  pEC50: 4.12
Vaccinia virus WR [3]; [26]
  pEC50: 4.12
Vaccinia virus WR [4]
  Effect of dsDNA: No
  trapped by dsDNA: no
[5]
  Solubility in cell growth medium: just slightly insoluble at the EC50
WST-1 cytotoxicity assay
  CC50 at 20 h: > 200 µM
BS-C-1 cells
  tox 20 h TC50: >100 µM
  tox 72 h TC50: >100 µM
  tox 120 h TC50: >100 µM

## CCS(=O)(=O)N1CCN=C1SCc1ccc(Cl)cc1Cl [Compound 10]
[1]; [22]
  pIC50: 3.73
[1]; read-out: DNA synth IC50
  pIC50: 3.73
Vaccinia virus WR [2]; [23]
  pEC50: 4.05
Vaccinia virus WR [2]; [24]
  pEC50: 4.05
Vaccinia virus WR [3]; [25]
  pEC50: 4.60
Vaccinia virus WR [3]; [26]
  pEC50: 4.60
Vaccinia virus WR [4]
  Effect of dsDNA: No
  trapped by dsDNA: no
[5]
  Solubility in cell growth medium: just slightly insoluble at the EC50
WST-1 cytotoxicity assay
  CC50 at 120 h: 25 µM
BS-C-1 cells
  tox 20 h TC50: 166 µM
  CC50: 166 µM

## N=C1S/C(=C/c2ccco2)C(=O)N1c1nccs1 [Compound 12]
[1]; [22]
  pIC50: 4.49
[1]; read-out: DNA synth IC50
  pIC50: 4.49
Vaccinia virus WR [2]
  Selectivity Index SI: >1.2
  selectivity index: >1.2
Vaccinia virus WR [2]; [23]
  pEC50: 4.10
Vaccinia virus WR [2]; [24]
  pEC50: 4.10
Vaccinia virus WR [3]; [25]
  pEC50: 4.12
Vaccinia virus WR [3]; [26]
  pEC50: 4.12
Vaccinia virus WR [4]
  Effect of dsDNA: No
  trapped by dsDNA: no
[5]
  Solubility in cell growth medium: just slightly insoluble at the EC50
WST-1 cytotoxicity assay
  CC50 at 72 h: > 50 µM
BS-C-1 cells
  tox 20 h TC50: >100 µM
  tox 72 h TC50: >100 µM
  tox 120 h TC50: 50 µM
  CC50: > 100 µM

## Oc1ccc(Cl)cc1Sc1cc(Cl)ccc1O [NSC 55636, 2,2′-thiobis(4-chlorophenol)]
[6]
  Effect on E9 polymerase activity on the uniform template: prevented E9 from incorporating nucleotides on the uniform template; also recorded: inhibited the catalytic activity of E9 DNA polymerase; also recorded: blocked polymerase activity
  Targeted Activity (% Inhibition): Polymerase: Polymerase (74%)
[7]
  Effect on DNA synthesis by the triad on the distal template: also blocked the distal template
[8]
  Effect on synthesis of M13 DNA: blocked by increasing concentrations
Vaccinia virus [9]
  inhibition at 100 µM: 95%
Vaccinia virus [9]; BSC-1, read-out: EC50 (concentration at which compound reduced plaques by 50%)
  pEC50: 5.30
Vaccinia virus [10]
  Blocking the replication of vaccinia virus in cells: effective in blocking the replication of vaccinia virus in cells
BSC-1 cells [11]
  Cell Cytotoxicity: 14%
BSC-1 cells [11]; listed as 55636
  Cell Cytotoxicity: 14%
In vitro
  CC50: > 200 µM

## CN(C)C1C(O)=C(C(N)=O)C(=O)C2(O)C(O)=C3C(=O)c4c(O)cccc4C(C)(O)C3CC12.CS(=O)(=O)O (stereo not drawn) [NSC 69343, 4-(dimethylamino)-3,6,10,12,12a-pentahydroxy-6-methyl-1,11-dioxo-1,4,4a,5,5a,6,11,12a-octahydrotetracene-2-carboxamide methanesulfonate, reference compound]
Vaccinia virus [9]
  inhibition at 100 µM: 40%
Vaccinia virus [10]
  Blocking the replication of vaccinia virus in cells: effective in blocking the replication of vaccinia virus in cells
BSC-1 cells [11]; methanesulfonate
  Cell Cytotoxicity: 17%
Vaccinia virus [12]
  pIC50: < 3.70
[13]
  CC50: > 200 µM

## O=C1CSC(=S)N1/N=C/c1ccc(Cl)c([N+](=O)[O-])c1 [NSC 124808]
[6]
  Effect on E9 polymerase activity on the uniform template: not on the uniform template; also recorded: minimal effects
[7]
  Effect on DNA synthesis by the triad on the distal template: prevented DNA synthesis by the triad on the distal template; also recorded: blocked incorporation on the distal template
  Targeted Activity (% Inhibition): Processivity: Processivity (62%)
[8]
  Effect on synthesis of M13 DNA: blocked by increasing concentrations
Vaccinia virus [9]
  inhibition at 100 µM: 36%
BSC-1 cells [11]
  Cell Cytotoxicity: 21%

## COc1cc(O)c2c(O)c3c(c4c2c1[C@]1(C4)C(C)=CCCC1(C)C)[C@H](O)[C@@]1(O)CC(O)=C(C(N)=O)C(=O)[C@@]1(O)C3=O [Viridicatumtoxin, viridicatumtoxin]
[14]
  pIC50: 4.20
BSC-1 cells [15]
  % cell viability on plaque IC50, Cell count: 92 ± 23%
BSC-1 cells [15]; listed as viridicatumtoxin
  % cell viability on plaque IC50, Cell count: About 90%
BSC-1 cells [16]
  % cell viability on plaque IC50, MTT: 83 ± 16%
BSC-1 cells [16]; listed as viridicatumtoxin
  % cell viability on plaque IC50, MTT: about 85%
[17]
  Early E3 mRNA production: maximum at 3 h.p.i. and dropped back to low levels by 5 h.p.i.
[18]
  Late F9 mRNA expression: only a marginal increase in F9 mRNA expression by 5 h.p.i.
[19]
  Early E3 protein level: no significant difference in the levels of E3
Vaccinia late L1 protein
  Late L1 protein level: significantly decreased
Vaccinia virus [10]
  Blocking the replication of vaccinia virus in cells: particularly effective
Vaccinia virus [20]
  Concentration at which the cells began to detach: ≥ 100 µM
Vaccinia virus [12]
  pIC50: 5.80
[13]
  CC50: > 200 µM
BSC-1 cells [21]
  Cytotoxicity at highest exposure: not cytotoxic
